Laboratory results taken from PMC8943889, “Synthetic studies with the brevicidine and laterocidine lipopeptide antibiotics including analogues with enhanced properties and in vivo efficacy” (Chemical Science, 2022).
In brackets after ≈: the same amount, converted by molar mass. Where two headings read alike, the source gives them in different places. Positions of bridges follow the written chain, without caps; N, C: chain ends. Non-standard residues stand in square brackets, D forms with d. Residues, ends and D or L forms follow the SMILES beside them. ξ: configuration not given here. *: point of attachment. Hexanoyl(4ξ-Me) = CCC(C)CCC(=O)*; dOrn = NCCC[C@@H](N)C(=O)O; Orn = NCCC[C@H](N)C(=O)O; Dap = NC[C@H](N)C(=O)O

Experiments:
Assay type in all cases: cell-based
[1] = test system: K. pneumoniae 2048
Protocol: (§1) Minimum inhibitory concentrations (MICs) were determined by broth microdilution according to CLSI guidelines in triplicate. Blood agar plates were inoculated with glycerol stocks of E. coli ATCC 25922, E. coli MCR-1 (clinical isolate from Utrecht Medical Centre, NL), E. coli EQAS MCR-2 (clinical isolate from Wageningen University and Research, NL), K. pneumoniae ATCC 11228, K. pneumoniae ATCC 13883, K. pneumonia 2048 (clnical isolate from Vrije Universiteit Amsterdam Medical Centre, NL), K. pneumonia JS-123 (clinical isolate from Utrecht Medical […]
(§2) (clinical isolate from Rijksinstituut voor Volksgezondheid en Milieu, NL), A. baumannii MDR (clinical isolate from Vrije Universiteit Amsterdam Medical Centre, NL), P. aeruginosa ATCC 27853, P. aeruginosa PAO1, P. aeruginosa NRZ-03961 (Reference strain from Das Nationale Referenzzentrum für gramnegative Krankenhauserreger, DE), P. aeruginosa M-120 (clinical isolate from Leiden University Medical Centre, NL) and S. aureus USA300 (clinical isolate from Texas Children's Hospital, USA). E. coli 25922 MCR1 was grown on LB agar supplemented with kanamycin. The inoculated agar plates were then incubated for 16 h at 37°C . Individually grown colonies were subsequently used to inoculate 3 mL aliquots of TSB that were then incubated at 37°C with shaking at 220 rpm. In parallel, the lipopeptide antibiotics to be assessed were serially diluted with Mueller-Hinton broth (MHB) in polypropylene 96-well plates (50 µL in each well).
(§3) Once the OD600 of the bacterial suspensions reached 0.5, the bacteria were diluted with MHB (final concentration 2 × 10^5 CFU mL−1) and added to the microplates containing the test compounds (50 µL to each well, final volume: 100 µL). The well-plates were sealed with an adhesive membrane and after 16 h of incubation at 37°C with shaking at 220 rpm the wells were visually inspected for bacterial growth. MIC values reported are based on three technical replicates and defined as the lowest concentration of the compound that prevented visible growth of bacteria. […]

[2] = test system: E. coli EQAS MCR-2; details: Ec EQAS MCR-2; broth microdilution (CLSI), MHB, 16 h 37 °C, three technical replicates
Protocol: as §1, §2, §3

[3] = test system: P. aeruginosa M-120
Protocol: as §1, §2, §3

[4] = test system: E. coli ATCC 25922
Protocol: as §1, §2, §3

[5] = test system: P. aeruginosa NRZ-03961
Protocol: as §1, §2, §3

[6] = test system: A. baumannii MDR; details: Ab MDR; broth microdilution (CLSI), MHB, 16 h 37 °C, three technical replicates
Protocol: as §1, §2, §3

[7] = test system: K. pneumoniae ATCC 11228
Protocol: as §1, §2, §3

[8] = test system: P. aeruginosa PAO1
Protocol: as §1, §2, §3

[9] = test system: A. baumannii ATCC 17961
Protocol: as §1, §2, §3

[10] = test system: A. baumannii ATCC 17978
Protocol: as §1, §2, §3

[11] = test system: P. aeruginosa ATCC 27853
Protocol: as §1, §2, §3

[12] = test system: S. aureus USA300
Protocol: as §1, §2, §3

[13] = test system: K. pneumoniae ATCC 13883
Protocol: as §1, §2, §3

[14] = test system: K. pneumoniae JS-123
Protocol: as §1, §2, §3

[15] = test system: E. coli ATCC 25922 MCR-1; details: Ec ATCC 25922 MCR-1; broth microdilution (CLSI), MHB, 16 h 37 °C, three technical replicates
Protocol: as §1, §2, §3

[16] = test system: A. baumannii 2018-006
Protocol: as §1, §2, §3

[17] = test system: E. coli MCR-1 (clinical isolate); details: Ec MCR-1; broth microdilution (CLSI), MHB, 16 h 37 °C, three technical replicates
Protocol: as §1, §2, §3

CCC(C)CCC(=O)N[C@H](CC(N)=O)C(=O)N[C@H](Cc1ccc(O)cc1)C(=O)N[C@H](Cc1c[nH]c2ccccc12)C(=O)N[C@H](CCCN)C(=O)N[C@@H](CCCN)C(=O)NCC(=O)N[C@H](CCCN)C(=O)N[C@@H](Cc1c[nH]c2ccccc12)C(=O)N[C@@H]1C(=O)N[C@@H]([C@@H](C)CC)C(=O)NCC(=O)N[C@@H](CO)C(=O)O[C@@H]1C (stereo partly drawn) [Brev (1), brevicidine]
MIC ([1]; 2048, 16 h): 1 to 2 µg/mL | MIC [2]: 2 µg/mL (≈ 1.32 µM) | MIC ([3]; M-120, 16 h): 2 to 4 µg/mL | MIC ([4]; ATCC 25922, 16 h): 1 to 2 µg/mL | MIC ([5]; NRZ-03961, 16 h): 2 µg/mL (≈ 1.32 µM) | MIC [6]: 4 µg/mL (≈ 2.63 µM) | MIC ([7]; ATCC 11228, 16 h): 1 to 2 µg/mL | MIC ([8]; PAO1, 16 h): 2 µg/mL (≈ 1.32 µM) | MIC ([9]; ATCC 17961, 16 h): 2 to 4 µg/mL | MIC ([10]; ATCC 17978, 16 h): 4 µg/mL (≈ 2.63 µM) | MIC ([11]; ATCC 27853, 16 h): ≤0.5 µg/mL | MIC ([12]; USA300, 16 h): 64 µg/mL (≈ 42.1 µM) | MIC ([13]; ATCC 13883, 16 h): 1 µg/mL (≈ 0.658 µM) | MIC ([14]; JS-123, 16 h): 1 µg/mL (≈ 0.658 µM) | MIC [15]: 2 µg/mL (≈ 1.32 µM) | MIC ([16]; 2018-006, 16 h): 4 µg/mL (≈ 2.63 µM)

CCC(C)CCC(=O)N[C@H](CC(N)=O)C(=O)N[C@H](Cc1ccc(O)cc1)C(=O)N[C@H](Cc1c[nH]c2ccccc12)C(=O)N[C@H](CCCN)C(=O)N[C@@H](CCCN)C(=O)NCC(=O)N[C@H](CCCN)C(=O)N[C@@H](Cc1c[nH]c2ccccc12)C(=O)N[C@H]1CNC(=O)[C@H](CO)NC(=O)CNC(=O)[C@H]([C@@H](C)CC)NC1=O (stereo partly drawn) [Dap9-Brev (5), Dap9-Brevicidamide] ({Hexanoyl(4ξ-Me)}-[dN][dY][dW][dOrn][Orn]G[dOrn]W[Dap]IGS; lactam 9-C)
MIC ([1]; Kp 2048, broth microdilution (CLSI), MHB, 16 h 37 °C, three technical replicates): 16 to 32 µg/mL | MIC [2]: 8 to 16 µg/mL | MIC ([3]; Pa M-120, broth microdilution (CLSI), MHB, 16 h 37 °C, three technical replicates): 16 µg/mL (≈ 10.6 µM) | MIC ([4]; Ec ATCC 25922, broth microdilution (CLSI), MHB, 2 × 10^5 CFU/mL, 16 h 37 °C, visual read-out, three technical replicates): 8 to 16 µg/mL | MIC ([5]; Pa NRZ-03961, broth microdilution (CLSI), MHB, 16 h 37 °C, three technical replicates): 16 to 32 µg/mL | MIC [6]: 8 µg/mL (≈ 5.32 µM) | MIC ([7]; Kp ATCC 11228, broth microdilution (CLSI), MHB, 16 h 37 °C, three technical replicates): 16 to 32 µg/mL | MIC ([8]; Pa PAO1, broth microdilution (CLSI), MHB, 16 h 37 °C, three technical replicates): 16 to 32 µg/mL | MIC ([9]; Ab ATCC 17961, broth microdilution (CLSI), MHB, 16 h 37 °C, three technical replicates): 4 µg/mL (≈ 2.66 µM) | MIC ([10]; Ab ATCC 17978, broth microdilution (CLSI), MHB, 16 h 37 °C, three technical replicates): 16 µg/mL (≈ 10.6 µM) | MIC ([11]; Pa ATCC 27853, broth microdilution (CLSI), MHB, 16 h 37 °C, three technical replicates): 8 µg/mL (≈ 5.32 µM) | MIC ([12]; Sa USA300, broth microdilution (CLSI), MHB, 16 h 37 °C, three technical replicates): >64 µg/mL | MIC ([13]; Kp ATCC 13883, broth microdilution (CLSI), MHB, 16 h 37 °C, three technical replicates): 32 µg/mL (≈ 21.3 µM) | MIC ([14]; Kp JS-123, broth microdilution (CLSI), MHB, 16 h 37 °C, three technical replicates): 8 µg/mL (≈ 5.32 µM) | MIC [17]: 8 to 16 µg/mL | MIC [15]: 16 µg/mL (≈ 10.6 µM) | MIC ([16]; Ab 2018-006, broth microdilution (CLSI), MHB, 16 h 37 °C, three technical replicates): 8 µg/mL (≈ 5.32 µM)

CCC(C)CCC(=O)N[C@H](CC(N)=O)C(=O)N[C@H](Cc1ccc(O)cc1)C(=O)N[C@H](Cc1c[nH]c2ccccc12)C(=O)N[C@H](CCCN)C(=O)N[C@@H](CCCN)C(=O)NCC(=O)N[C@H](CCCN)C(=O)N[C@@H](Cc1c[nH]c2ccccc12)C(=O)N[C@@H]1C(=O)N[C@@H]([C@@H](C)CC)C(=O)NCC(=O)N[C@@H](CO)C(=O)N[C@@H]1C (stereo partly drawn) [MeDap9-Brev (7)]
MIC ([1]; 2048, 16 h): 8 to 16 µg/mL | MIC ([3]; M-120, 16 h): 4 µg/mL (≈ 2.63 µM) | MIC ([4]; ATCC 25922, 16 h): 16 µg/mL (≈ 10.5 µM) | MIC ([5]; NRZ-03961, 16 h): 8 µg/mL (≈ 5.27 µM) | MIC ([7]; ATCC 11228, 16 h): 8 µg/mL (≈ 5.27 µM) | MIC ([8]; PAO1, 16 h): 4 µg/mL (≈ 2.63 µM) | MIC ([9]; ATCC 17961, 16 h): 8 to 16 µg/mL | MIC ([10]; ATCC 17978, 16 h): 16 µg/mL (≈ 10.5 µM) | MIC ([11]; ATCC 27853, 16 h): 2 to 4 µg/mL | MIC ([12]; USA300, 16 h): >64 µg/mL | MIC ([13]; ATCC 13883, 16 h): 8 µg/mL (≈ 5.27 µM) | MIC ([14]; JS-123, 16 h): 4 to 8 µg/mL | MIC [17]: 8 µg/mL (≈ 5.27 µM) | MIC [15]: 8 µg/mL (≈ 5.27 µM) | MIC ([16]; 2018-006, 16 h): 16 µg/mL (≈ 10.5 µM)
